Measured values: ChEMBL document CHEMBL1201862, “PubChem BioAssay data set” (2004)
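Where inhibition never reached the appropriate level, the endpoint shown equals the highest concentration tested. Otherwise, values were interpolated linearly from a five-concentration, 48-hour dose response in 96-well plates. At the GI50, growth is halved.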 Activity calls are given as the source filed them. Cut-off read from the data, not from the text of the source: active = GI50 up to about 1.1 µM and inactive = higher.

How the values were obtained:
Experiment in all cases: DTP human tumour cell line panel, 48 h
[1] = tested on: OVCAR-3
[2] = tested on: IGROV-1
[3] = tested on: A549
[4] = tested on: M14
[5] = tested on: HOP-62
[6] = tested on: K562
[7] = tested on: LOX IMVI
[8] = tested on: HL-60
[9] = tested on: M19-MEL
[10] = tested on: HCT-116
[11] = tested on: UACC-62
[12] = tested on: SNB-75
[13] = tested on: OVCAR-8
[14] = tested on: A498
[15] = tested on: KM12
[16] = tested on: NCI-H460
[17] = tested on: CCRF-CEM
[18] = tested on: ACHN
[19] = tested on: SK-MEL-2

Measured: GI50

COc1cc(CC(C(=O)O)C(=O)O)c(OC)cc1CC(C(=O)O)C(=O)O
inactive: [1] > 100 µM | [2] > 100 µM | [3] > 100 µM | [4] > 100 µM | [5] > 100 µM | [6] > 100 µM | [7] > 100 µM | [8] > 100 µM | [9] > 100 µM | [10] > 100 µM | [11] > 100 µM | [12] > 100 µM | [13] > 100 µM | [14] > 100 µM | [15] > 100 µM | [16] > 100 µM | [17] > 100 µM

Cc1nc2c(ccc3ncccc32)[nH]1
inactive: [1] > 100 µM | [2] > 100 µM | [3] > 100 µM | [4] > 100 µM | [5] > 100 µM | [6] > 100 µM | [18] > 100 µM | [7] > 100 µM | [8] > 100 µM | [9] > 100 µM | [19] > 100 µM | [11] > 100 µM | [12] > 100 µM | [13] > 100 µM | [15] > 100 µM | [16] > 100 µM | [17] > 100 µM

CC(C)=CC(C(O)c1ccccc1)S(=O)(=O)c1nccn1C (stereo unspecified)
inactive: [1] > 100 µM | [2] > 100 µM | [3] > 100 µM | [4] > 100 µM | [5] > 100 µM | [6] > 100 µM | [18] > 100 µM | [7] > 100 µM | [8] > 100 µM | [9] > 100 µM | [19] > 100 µM | [10] > 100 µM | [11] > 100 µM | [12] > 100 µM | [13] > 100 µM | [15] > 100 µM | [16] > 100 µM | [17] > 100 µM

CC(C)C(Sc1nc(-c2ccccc2)c(-c2ccccc2)[nH]1)C(=O)N/N=C/c1ccc([N+](=O)[O-])cc1 (stereo unspecified)
inactive: [1] 7.19 µM | [2] 18.2 µM | [3] 27.3 µM | [4] 7.33 µM | [5] 20.8 µM | [18] 15.6 µM | [7] 11.6 µM | [8] 13.6 µM | [9] 11.6 µM | [19] 12.5 µM | [10] 14.5 µM | [11] 15.6 µM | [12] 18.8 µM | [13] 29.1 µM | [14] 20.5 µM | [15] 10.9 µM | [16] 9.46 µM | [17] 4.05 µM

CCOC(=O)C(=O)Nc1ccc(Cl)c(C(F)(F)F)c1
inactive: [1] > 100 µM | [2] > 100 µM | [3] > 100 µM | [4] > 100 µM | [5] > 100 µM | [6] > 100 µM | [18] > 100 µM | [7] > 100 µM | [8] > 100 µM | [9] > 100 µM | [19] > 100 µM | [10] > 100 µM | [11] > 100 µM | [12] > 100 µM | [13] > 100 µM | [17] > 100 µM

O=C1C(O)=C(CN(CCCl)CCCl)C(=O)c2ccccc21
inactive: [1] 45.1 µM | [2] 20.5 µM | [3] 34.3 µM | [4] 65.6 µM | [5] > 100 µM | [6] 45.6 µM | [18] 35.2 µM | [8] 31 µM | [9] 54.6 µM | [19] > 100 µM | [10] 34.4 µM | [11] 39.6 µM | [12] 73.6 µM | [13] 76.9 µM | [14] > 100 µM | [15] 56.5 µM | [16] 29.2 µM | [17] 42.3 µM

O=C1c2c(nc3ccccc3c2-c2ccccc2)CN1Nc1ccccc1
inactive: [1] > 100 µM | [2] > 100 µM | [3] > 100 µM | [4] > 100 µM | [5] 53.8 µM | [6] > 100 µM | [7] > 100 µM | [8] 45.3 µM | [9] > 100 µM | [19] > 100 µM | [10] > 100 µM | [11] > 100 µM | [13] > 100 µM | [15] > 100 µM | [17] > 100 µM

COc1ccc2nc(NC(=O)C(=O)NNC(=O)c3ccncc3)sc2c1
inactive: [1] > 100 µM | [2] > 100 µM | [3] > 100 µM | [4] > 100 µM | [5] > 100 µM | [6] > 100 µM | [18] > 100 µM | [7] > 100 µM | [8] > 100 µM | [9] > 100 µM | [10] > 100 µM | [11] > 100 µM | [12] > 100 µM | [13] > 100 µM | [14] > 100 µM | [16] > 100 µM | [17] > 100 µM

O=C1c2ccccc2NC1(c1ccccc1)c1c(-c2ccccc2)[nH]c2ccccc12 (stereo unspecified)
inactive: [1] 21.2 µM | [2] 4.41 µM | [3] 3.98 µM | [4] 22.1 µM | [5] 67.5 µM | [6] 8.32 µM | [18] 9.25 µM | [8] 5.04 µM | [9] 24.3 µM | [19] 11.9 µM | [10] 7.28 µM | [11] 45.3 µM | [12] 24.7 µM | [13] 24.9 µM | [14] 32.8 µM | [15] 10.5 µM | [16] 17.5 µM | [17] 6.3 µM

CCCCCCCCCc1cc(=O)c2ccc(O)cc2o1
inactive: [1] 9.38 µM | [2] 41.2 µM | [3] 37.6 µM | [4] > 100 µM | [5] > 100 µM | [6] 14.5 µM | [18] 42.2 µM | [7] 40.2 µM | [8] 11.6 µM | [9] > 100 µM | [19] 10.3 µM | [10] 38.5 µM | [11] > 100 µM | [12] 17.2 µM | [13] 27.1 µM | [15] 46.9 µM | [16] 57.8 µM | [17] 16.9 µM

CC1CC2(CC[C@@H]1O)OCCO2 (stereo partly specified)
inactive: [1] > 100 µM | [2] > 100 µM | [3] > 100 µM | [4] > 100 µM | [5] > 100 µM | [6] > 100 µM | [7] > 100 µM | [8] > 100 µM | [9] > 100 µM | [19] > 100 µM | [10] > 100 µM | [11] > 100 µM | [13] > 100 µM | [14] > 100 µM | [15] > 100 µM | [16] > 100 µM | [17] > 100 µM

Cn1c(=O)nc2n(-c3cc(C(F)(F)F)cc(C(F)(F)F)c3)c3ccccc3nc-2c1=O
inactive: [1] 64.7 µM | [2] > 100 µM | [3] > 100 µM | [4] > 100 µM | [5] > 100 µM | [6] > 100 µM | [18] 75.3 µM | [7] > 100 µM | [8] > 100 µM | [9] 13.8 µM | [19] > 100 µM | [10] > 100 µM | [12] 18.8 µM | [13] > 100 µM | [14] > 100 µM | [15] > 100 µM | [16] > 100 µM
